Measured values published in US20130133650A1, “GAS-BASED TREATMENT FOR INFECTIVE DISEASE” (priority 2010, published 2013).

What was measured:
Mycobacterium bovis BCG = details: cited from earlier work
[1] = rabbit, in vivo
[2] = tested on: THP-1 macrophage-like cells; experiment: Viability of human macrophage-like cells following anaerobic shock (trypan blue exclusion); format: cell-based; details: uninfected differentiated THP-1 cells, various treatment times (FIG. 3(B))
Experimental: THP-1 cells were grown and induced for differentiation as above. The monolayer of differentiated macrophage-like cells was dispersed by trypsinization, after which cell suspensions were transferred to Vacutainer tubes and shocked with anaerobic gas as described for bacterial cultures. At various times, 20-microliter aliquots of suspended cells (˜10^6 cells/ml) were mixed with an equal volume of Trypan Blue staining solution (0.4% Trypan blue, Sigma Chemicals CO., St. Louis, Mo.)). Total and blue cell numbers were determined by light microscopy using a hemocytometer.
Percent of white (live) cells was plotted relative to an untreated sample.

[3] = tested on: M. tuberculosis H37Rv inside THP-1 macrophage-like cells; experiment: Anaerobic shock of macrophage-like cells infected with M. tuberculosis, bacterial survival; details: treatment for the indicated times (FIG. 3(A))
M. bovis BCG = format: cell-based, Mycobacterium bovis BCG; details: jar flushed with gas, 1-24 hour (FIG. 5)

## NCCN(CCN)/[N+]([O-])=N/O [DETA-NO, diethylene-triamine-nitric oxide adduct]
Mycobacterium bovis BCG; pretreatment before anaerobic shock
  effect of pretreatment on anaerobic shock-caused cell death: not blocked
Mycobacterium bovis BCG; single treatment
  duration of sustained growth arrest: 72 h

## [Ar] [argon]
[1]
  side-effect of one-lung anaerobic shock: no obvious side-effect
[2]
  macrophage viability (trypan blue exclusion): slightly reduced viability at long treatment times
[3]
  intracellular bacillary viability: only reduced bacillary viability moderately

## [HH] [hydrogen]
M. bovis BCG
  killing of bacteria on agar surface: killed
